Converted amounts (≈) assume the structure as drawn.
What was measured:
Format in all cases: cell-based
[1] = system: Staphylococcus aureus Oxford; assay: agar-dilution MIC, S. aureus Oxford; conditions: 10^4 CFU/spot, 37° C., 24 hours
Method: (§1) The following results were obtained on a standard in vitro test system. The activity is described in terms of the minimum inhibitory concentration (MIC) determined by the agar-dilution technique with an inoculum size of 10^4 CFU/spot.
(§2) Staphylococci were tested on agar, using an inoculum of 10^4 CFU/spot and an incubation temperature of 37° C. for 24 hours--standard test conditions for the expression of methicillin resistance.

[2] = system: Staphylococcus aureus MRQS; assay: agar-dilution MIC, S. aureus MRQS; conditions: methicillin resistant quinolone sensitive, 10^4 CFU/spot, 37° C., 24 hours
Method: as §1, §2
MRQS = methicillin resistant quinolone sensitive

[3] = system: Enterococcus faecalis; assay: agar-dilution MIC, E. faecalis; conditions: agar with 5% defibrinated horse blood, 10^4 CFU/spot, 37° C., 5% carbon dioxide, 48 hours
Method: as §1
(§3) Streptococci and enterococci were tested on agar supplemented with 5% defibrinated horse blood, an inoculum of 10^4 CFU/spot and an incubation temperature of 37° C. in an atmosphere of 5% carbon dioxide for 48 hours--blood is required for the growth of some of the test organisms.

[4] = system: Streptococcus pyogenes C203; assay: agar-dilution MIC, S. pyogenes C203; conditions: agar with 5% defibrinated horse blood, 10^4 CFU/spot, 37° C., 5% carbon dioxide, 48 hours
Method: as §1, §3

[5] = system: Coagulase Negative Staphylococci MS; assay: agar-dilution MIC, coagulase negative staphylococci MS; conditions: 10^4 CFU/spot, 37° C., 24 hours
Method: as §1, §2

[6] = system: Staphylococcus aureus MRQR; assay: agar-dilution MIC, S. aureus MRQR; conditions: methicillin resistant quinolone resistant, 10^4 CFU/spot, 37° C., 24 hours
Method: as §1, §2
MRQR = methicillin resistant quinolone resistant

[7] = system: Coagulase Negative Staphylococci MR; assay: agar-dilution MIC, coagulase negative staphylococci MR; conditions: methicillin resistant, 10^4 CFU/spot, 37° C., 24 hours
Method: as §1, §2
MR = methicillin resistant

[8] = system: Bacillus subtilis; assay: agar-dilution MIC, B. subtilis; conditions: 10^4 CFU/spot
Source text: as §1

Compound `CC(=O)NC[C@H]1CN(c2ccc(N3CCN(C)C(=O)C3)c(F)c2)C(=O)O1` [Example 1, N-(5S)-[3-(3-fluoro-4-{4-methyl-3-oxopiperazin-1-yl}phenyl)-2-oxooxazolidin-5-ylmethyl]acetamide] has an MIC [1] of 1 µg/mL (≈ 2.74 µM), an MIC [2] of 2 µg/mL (≈ 5.49 µM) and an MIC [3] of 2 µg/mL (≈ 5.49 µM). It also gave an MIC [4] of 1 µg/mL (≈ 2.74 µM), an MIC [5] of 0.5 µg/mL (≈ 1.37 µM) and an MIC [6] of 4 µg/mL (≈ 11 µM). For the same compound, the MIC [7] was 1 µg/mL (≈ 2.74 µM) and the MIC [8] was 1 µg/mL (≈ 2.74 µM).

Reference: US6069145A, “Piperazinonephenyloxazolidinone derivatives and their use as antibacterial agents” (Zeneca Limited, priority 1996, dated 2000)
